Results published in ChEMBL document CHEMBL1201862, “PubChem BioAssay data set” (2004).
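In this assay, cells in 96-well plates receive the compound at five concentrations for 48 hours. Endpoints are linearly interpolated between the surrounding concentrations. GI50 = concentration required for 50% inhibition of growth.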 Activity calls are given as the source filed them. No stated cut-off is given here; in the data, active = GI50 up to about 1.1 µM and inactive = higher.

Experiments:
Experiment in all cases: growth of human tumour cells (NCI), 48 h
[1] = test system: A498
[2] = test system: A549
[3] = test system: COLO 205
[4] = test system: DMS-114
[5] = test system: HCC 2998
[6] = test system: HCT-116
[7] = test system: HL-60
[8] = test system: HOP-62
[9] = test system: K562
[10] = test system: NCI-H226
[11] = test system: OVCAR-4
[12] = test system: OVCAR-8
[13] = test system: RPMI-8226
[14] = test system: SF-295
[15] = test system: SK-MEL-28
[16] = test system: UACC-257
[17] = test system: RXF 393
[18] = test system: HOP-18
[19] = test system: Hs-578T
[20] = test system: T47D

**Q.** What does the source list for CCN1CCC(O)(/C=C/c2ccc(Cl)cc2)C(C(=O)/C=C/c2ccc(Cl)cc2)C1 (configuration not stated)?
**A.** GI50 [1]: 17.3 µM (inactive); GI50 [2]: 25.4 µM (inactive); GI50 [3]: 71.4 µM (inactive); GI50 [4]: 26.6 µM (inactive); GI50 [5]: 18.4 µM (inactive); GI50 [6]: 3.63 µM (inactive); GI50 [7]: 17.5 µM (inactive); GI50 [8]: > 100 µM (inactive); GI50 [9]: 28.1 µM (inactive); GI50 [10]: 20.8 µM (inactive); GI50 [11]: 29.6 µM (inactive); GI50 [12]: 24.4 µM (inactive); GI50 [13]: 2.88 µM (inactive); GI50 [14]: 20.6 µM (inactive); GI50 [15]: 21.6 µM (inactive); GI50 [16]: 17.5 µM (inactive)

**Q.** What does the source list for Cc1cccc2c1Oc1cc(Cl)ccc1C2NC(=O)CN(C)C (configuration not stated)?
**A.** GI50 [2]: > 100 µM (inactive); GI50 [3]: 33.5 µM (inactive); GI50 [4]: 34.9 µM (inactive); GI50 [5]: 34.8 µM (inactive); GI50 [6]: 27.5 µM (inactive); GI50 [7]: 17.1 µM (inactive); GI50 [8]: 57.7 µM (inactive); GI50 [9]: 36 µM (inactive); GI50 [10]: 99.8 µM (inactive); GI50 [11]: 53.5 µM (inactive); GI50 [12]: > 100 µM (inactive); GI50 [13]: 29.2 µM (inactive); GI50 [17]: 26.5 µM (inactive); GI50 [15]: 27.1 µM (inactive); GI50 [16]: 31.6 µM (inactive)

**Q.** Which GI50 [1] does the source give for OCC1OC(c2nc(C3=NCCCN3)cs2)C(O)C1O (configuration not stated) here?
**A.** > 100 µM (inactive)

**Q.** And the GI50 [2]?
**A.** > 100 µM (inactive)

**Q.** What about the GI50 [3] of the same molecule?
**A.** > 100 µM (inactive)

**Q.** And the GI50 [4]?
**A.** > 100 µM (inactive)

**Q.** What about the GI50 [5] of the same molecule?
**A.** > 100 µM (inactive)

**Q.** And the GI50 [6]?
**A.** > 100 µM (inactive)

**Q.** What about the GI50 [7] of the same molecule?
**A.** > 100 µM (inactive)

**Q.** What about the GI50 [18] of the same molecule?
**A.** > 100 µM (inactive)

**Q.** What about the GI50 [8] of the same molecule?
**A.** > 100 µM (inactive)

**Q.** What about the GI50 [9] of the same molecule?
**A.** > 100 µM (inactive)

**Q.** What about the GI50 [10] of the same molecule?
**A.** > 100 µM (inactive)

**Q.** What about the GI50 [11] of the same molecule?
**A.** > 100 µM (inactive)

**Q.** What about the GI50 [12] of the same molecule?
**A.** > 100 µM (inactive)

**Q.** And the GI50 [13]?
**A.** > 100 µM (inactive)

**Q.** What about the GI50 [14] of the same molecule?
**A.** > 10 µM (inactive)

**Q.** And the GI50 [15]?
**A.** > 100 µM (inactive)

**Q.** And the GI50 [16]?
**A.** > 100 µM (inactive)

**Q.** With C[P+]1(c2ccccc2)CCCCC1 as the molecule, how does the GI50 [1] read?
**A.** > 100 µM (inactive)

**Q.** What about the GI50 [2] of the same molecule?
**A.** > 100 µM (inactive)

**Q.** What about the GI50 [3] of the same molecule?
**A.** > 100 µM (inactive)

**Q.** What about the GI50 [4] of the same molecule?
**A.** > 100 µM (inactive)

**Q.** And the GI50 [5]?
**A.** > 100 µM (inactive)

**Q.** And the GI50 [18]?
**A.** 0.0484 µM (active)

**Q.** What about the GI50 [8] of the same molecule?
**A.** > 100 µM (inactive)

**Q.** And the GI50 [9]?
**A.** > 100 µM (inactive)

**Q.** What about the GI50 [11] of the same molecule?
**A.** > 100 µM (inactive)

**Q.** And the GI50 [12]?
**A.** > 100 µM (inactive)

**Q.** And the GI50 [13]?
**A.** > 100 µM (inactive)

**Q.** What about the GI50 [17] of the same molecule?
**A.** > 100 µM (inactive)

**Q.** What about the GI50 [14] of the same molecule?
**A.** > 100 µM (inactive)

**Q.** What about the GI50 [15] of the same molecule?
**A.** > 100 µM (inactive)

**Q.** And the GI50 [16]?
**A.** > 100 µM (inactive)

**Q.** Which results are given for C=CCC1[C@@H](C(C)(C)C(C(C)=O)C(=O)C(=O)OC)OC(C(C)(C)C)N1C(=O)OC (some centres not stated)?
**A.** GI50 [1]: > 100 µM (inactive); GI50 [2]: > 100 µM (inactive); GI50 [3]: > 100 µM (inactive); GI50 [5]: > 100 µM (inactive); GI50 [6]: 47.4 µM (inactive); GI50 [18]: > 100 µM (inactive); GI50 [8]: > 100 µM (inactive); GI50 [9]: 40.6 µM (inactive); GI50 [10]: 52.6 µM (inactive); GI50 [11]: > 100 µM (inactive); GI50 [12]: > 100 µM (inactive); GI50 [17]: > 100 µM (inactive); GI50 [14]: > 100 µM (inactive); GI50 [15]: > 100 µM (inactive); GI50 [16]: > 100 µM (inactive)

**Q.** What does the source list for CO[C@@H]1C[C@H](OC(N)=O)[C@@H]2C=C[C@@H]3/C=C(C)/C=C/[C@@H](C)[C@H](/C(C)=C/[C@@H](C)NC(C)=O)OC(=O)/C=C/C=C(C)\C=C\[C@]3(C)[C@@H]2C1 [SUPERSTOLIDE B]?
**A.** GI50 [1]: < 0.005 µM (active); GI50 [2]: < 0.005 µM (active); GI50 [3]: < 0.005 µM (active); GI50 [5]: < 0.005 µM (active); GI50 [6]: < 0.005 µM (active); GI50 [7]: < 0.005 µM (active); GI50 [8]: < 0.005 µM (active); GI50 [19]: < 0.005 µM (active); GI50 [9]: < 0.005 µM (active); GI50 [10]: < 0.005 µM (active); GI50 [11]: < 0.005 µM (active); GI50 [12]: 0.00607 µM (active); GI50 [13]: 0.0158 µM (active); GI50 [17]: < 0.005 µM (active); GI50 [14]: < 0.005 µM (active); GI50 [15]: < 0.005 µM (active); GI50 [20]: < 0.005 µM (active); GI50 [16]: 0.0189 µM (active)

**Q.** O=C(N/N=C\c1ccc([N+](=O)[O-])s1)c1ccncc1 was tested. Which GI50 [1] did it give?
**A.** 23.4 µM (inactive)

**Q.** What about the GI50 [2] of the same molecule?
**A.** 16.7 µM (inactive)

**Q.** And the GI50 [3]?
**A.** 2.13 µM (inactive)

**Q.** What about the GI50 [5] of the same molecule?
**A.** 5.71 µM (inactive)

**Q.** What about the GI50 [6] of the same molecule?
**A.** 5.07 µM (inactive)

**Q.** And the GI50 [7]?
**A.** 2.38 µM (inactive)

**Q.** What about the GI50 [8] of the same molecule?
**A.** 14.4 µM (inactive)

**Q.** What about the GI50 [19] of the same molecule?
**A.** 15.8 µM (inactive)

**Q.** And the GI50 [9]?
**A.** > 10 µM (inactive)

**Q.** What about the GI50 [10] of the same molecule?
**A.** 5.15 µM (inactive)

**Q.** What about the GI50 [11] of the same molecule?
**A.** 15 µM (inactive)

**Q.** And the GI50 [12]?
**A.** 14.7 µM (inactive)

**Q.** And the GI50 [13]?
**A.** 5.62 µM (inactive)

**Q.** And the GI50 [17]?
**A.** 16.9 µM (inactive)

**Q.** What about the GI50 [14] of the same molecule?
**A.** 16.4 µM (inactive)

**Q.** And the GI50 [15]?
**A.** 35.3 µM (inactive)

**Q.** And the GI50 [20]?
**A.** 21.2 µM (inactive)

**Q.** What about the GI50 [16] of the same molecule?
**A.** 14.6 µM (inactive)

**Q.** For CC(=O)N1C(CCc2ccccc2)CC(C)(C=O)C1Cc1ccc(O[Si](C(C)C)(C(C)C)C(C)C)cc1 (configuration not stated), which GI50 [1] is on record?
**A.** 2.87 µM (inactive)

**Q.** What about the GI50 [2] of the same molecule?
**A.** 3.87 µM (inactive)

**Q.** What about the GI50 [3] of the same molecule?
**A.** 2.93 µM (inactive)

**Q.** What about the GI50 [5] of the same molecule?
**A.** 1.31 µM (inactive)

**Q.** And the GI50 [6]?
**A.** 2.55 µM (inactive)

**Q.** What about the GI50 [7] of the same molecule?
**A.** 1.76 µM (inactive)

**Q.** What about the GI50 [8] of the same molecule?
**A.** 8.11 µM (inactive)

**Q.** What about the GI50 [19] of the same molecule?
**A.** 3.28 µM (inactive)

**Q.** What about the GI50 [9] of the same molecule?
**A.** 2.72 µM (inactive)

**Q.** What about the GI50 [10] of the same molecule?
**A.** 6.76 µM (inactive)

**Q.** What about the GI50 [11] of the same molecule?
**A.** 3.7 µM (inactive)

**Q.** And the GI50 [12]?
**A.** 4.39 µM (inactive)

**Q.** What about the GI50 [13] of the same molecule?
**A.** 2.07 µM (inactive)

**Q.** What about the GI50 [17] of the same molecule?
**A.** 1.69 µM (inactive)

**Q.** And the GI50 [14]?
**A.** 5.11 µM (inactive)

**Q.** What about the GI50 [15] of the same molecule?
**A.** 6.32 µM (inactive)

**Q.** What about the GI50 [20] of the same molecule?
**A.** 2.2 µM (inactive)

**Q.** And the GI50 [16]?
**A.** 5.11 µM (inactive)
